The record followed here is PubChem BioAssay AID850 (SRMLSC, 2007).

Test [1] can be described thus: concentration-response yeast growth inhibition under permissive conditions, counter-assay for yeast lifespan-shortening chemical project (AID 850).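 Note: growth read as optical density after one day of incubation.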 The note with it: Saccharomyces cerevisiae growth inhibition, permissive control, measured here: maximum growth inhibition, stronger effect = higher value.
In test [2] the test system is Saccharomyces cerevisiae growth inhibition, permissive control. The description is as above.

Activity calls are given as the source filed them. The rule behind the calls is not given here. Bounds are passed on as bounds.

Broadly, the inhibition is the change of the read-out against control, counted positive when it falls. A word on the IC50: it is the concentration at which inhibition is half-maximal.

Compound `O=c1c(-c2ccccc2)nc(-c2ccccc2)cn1O` returned an inhibition in test [1] (at 50 µM) of 82.1%. For the same compound, in test [2], the IC50 was 22.9 µM.

Take `Cc1ccc(C(=O)CSC2=NC(N)=C(C#N)C3(CCCCC3)C2C(N)=O)cc1` (stereo unspecified): the inhibition in test [1] (at 1.563 µM) amounted to 18.2%. Moreover, the IC50 in test [2] is > 100 µM (inactive).

`Oc1c(CN2CCN(c3ccc(F)cc3)CC2)cc(Cl)c2cccnc12` yielded an inhibition in test [1] (at 50 µM) of 100%. In test [2], the IC50 is 12.2 µM.

Turning to `C/C(=N\Nc1ccc([N+](=O)[O-])cc1)c1ccc(N)cc1`, the inhibition in test [1] (at 50 µM) came out at 94.4%. Further, in test [2], the half-inhibitory concentration (IC50) is 6.04 µM.

With `Cc1cccc(N=Nc2ccc(O)c3ncccc23)c1`, the inhibition in test [1] (at 50 µM) was 27.9%. In addition, the IC50 in test [2] was > 100 µM (inactive).

The compound `COc1ccc(OC)c(CCNC(=O)Cn2sc3nc(C)cc(C)c3c2=O)c1` showed an inhibition in test [1] (at 0.391 µM) of 13%. Besides, in test [2], the IC50 was > 100 µM (inactive).

`CC1=C/C(=N\OS(=O)(=O)c2ccccc2)C(C)=CC1=O`: in test [1] (at 12.5 µM), the inhibition stood at 100%. For the same compound, in test [2], the IC50 was 0.614 µM.

In the case of `COc1ccc(C(=O)N/N=C/c2sc3ccccc3c2O)cc1`, the inhibition in test [1] (at 0.781 µM) is 17%. For the same compound, in test [2], the IC50 was > 100 µM (inactive).

`O=[N+]([O-])c1ccc(N/N=C/c2ccc[nH]2)cc1` registered an inhibition in test [1] (at 50 µM) of 5.41%. Moreover, the IC50 in test [2] was > 100 µM (inactive).

On to `COc1cccc(CC(=O)Nc2ccc3nc(C)sc3c2)c1`, for which the inhibition in test [1] (at 50 µM) worked out at 96.5%. The IC50 in test [2] is 16 µM.

Regarding `O=C(Nc1nc(-c2ccccn2)cs1)c1ccc(Br)s1`, the inhibition in test [1] (at 12.5 µM) was 99.4%. The IC50 in test [2] is 5.55 µM.

As for `CC(C)(C)C(=O)O/N=C1/C(=O)N(c2ccccc2)c2ccccc21`, the inhibition in test [1] (at 25 µM) is 52.3%. Moreover, in test [2], the concentration for half-maximal inhibition (IC50) is 42.9 µM.

In test [1] (at 50 µM), `COc1ccc(C(=O)/C=C/N2CCCCC2)cc1OC` came in with an inhibition of 91.2%. Also, the IC50 in test [2] was 29.4 µM.

`N/C(Cc1ccc(Cl)c(Cl)c1)=N\OC(=O)c1cccs1` had an inhibition in test [1] (at 0.195 µM) of 4.64%. The IC50 in test [2] was > 100 µM (inactive).

As to `CCCC1COC(Cn2cncn2)(c2ccc(C)cc2)O1` (stereo unspecified), the inhibition in test [1] (at 25 µM) was 94.7%. In addition, in test [2], the IC50 was 1.83 µM.

In test [1] (at 50 µM), `CC1=NNC(=O)/C1=C\c1cn(-c2ccccc2)nc1-c1cccs1` had an inhibition of 98%. The half-maximal inhibitory concentration (IC50) in test [2] is 8.18 µM.

In test [1] (at 25 µM), `C=CCC1c2cccc(C(=O)O)c2C(=O)N1c1cccc(C)c1` (stereo unspecified) displayed an inhibition of 44.4%. In test [2], the IC50 was 49.7 µM.

Regarding `COc1ccc(-c2nnc3sc(C(C)N4C(=O)c5ccccc5C4=O)nn23)cc1` (stereo unspecified), in test [1] (at 6.25 µM), the inhibition came to 14%. Also, the IC50 in test [2] was > 100 µM (inactive).

Compound `Cc1ccc2c(c1)C(=NC1CCCCC1)c1cc3ccccc3nc1-2` came in with an inhibition in test [1] (at 12.5 µM) of 22.8%. The IC50 in test [2] was > 100 µM (inactive).

Consider `COc1cccc(C(=O)O/N=C(\N)Cc2ccc(Cl)cc2)c1`, for which the inhibition in test [1] (at 12.5 µM) came to 97.5%. The IC50 in test [2] is 6.32 µM.

Regarding `COc1ccc(-c2nncnn2)cc1`, in test [1] (at 50 µM), the inhibition worked out at 99.8%. Moreover, the IC50 in test [2] was 7.1 µM.

In the case of `O=C(Nc1nc(-c2ccccn2)cs1)c1ccc(Cl)s1`, the inhibition in test [1] (at 12.5 µM) was found to be 91.4%. The IC50 in test [2] is 2.09 µM.

In turn, `CCOC(=O)CSc1nnc(CSc2nc(N)c3c(C)c(C)sc3n2)n1-c1ccccc1` displayed an inhibition in test [1] (at 0.391 µM) of 7.59%. Moreover, in test [2], the IC50 is > 100 µM (inactive).

For `C=C(C)COc1ccc(-c2[nH]ncc2-c2ccccc2OC)c(O)c1`, the inhibition in test [1] (at 0.781 µM) turned out to be 23%. For the same compound, the IC50 in test [2] was > 100 µM (inactive).

`CC(C)(C)c1nnc(N/N=C/c2cc(Br)ccc2O)n(N)c1=O` registered an inhibition in test [1] (at 50 µM) of 50.9%. Besides, the IC50 in test [2] was 49.9 µM.

Compound `O=c1oc2ccccc2c(N2CCCC2)c1CN1CCCC1` yielded an inhibition in test [1] (at 12.5 µM) of 11.7%. Moreover, in test [2], the IC50 is > 100 µM (inactive).

Consider `N#CC(c1cccc(Cl)c1)c1ccc2c(C(F)(F)F)cc(C(F)(F)F)nc2n1` (stereo unspecified), for which the inhibition in test [1] (at 50 µM) is 4.48%. Further, the IC50 in test [2] is > 100 µM (inactive).

`Cc1ccc(-c2cc(-c3ccccc3C)[nH]n2)c(O)c1` displayed an inhibition in test [1] (at 50 µM) of 89.4%. The IC50 in test [2] is 22.2 µM.

`C/C(=N\Nc1nc2c(s1)CCCC2)c1ccccc1` returned an inhibition in test [1] (at 50 µM) of 99.1%. Moreover, the IC50 in test [2] is 28.2 µM.

For `O=c1cc(-c2ccccc2)n(S(=O)(=O)c2ccccc2)o1`, the inhibition in test [1] (at 0.195 µM) was determined as 2.71%. Also, the IC50 in test [2] was > 100 µM (inactive).

Consider `O=C(c1cc(-c2ccccc2O)on1)N1CCc2ccccc2C1`, for which the inhibition in test [1] (at 0.391 µM) worked out at 16.3%. In addition, the IC50 in test [2] was > 100 µM (inactive).

With `O=[N+]([O-])c1ccc(N/N=C2/CCCCC2c2ccccn2)cc1` (stereo unspecified), the inhibition in test [1] (at 50 µM) was 98.4%. For the same compound, in test [2], the IC50 was 1.94 µM.

Compound `CCC(=C(c1ccc(OC)cc1)c1ccc(OC)cc1)c1cn(CC(O)CN2CCN(C)CC2)c2ccccc12` (stereo unspecified) displayed an inhibition in test [1] (at 50 µM) of 93.2%. Also, the half-maximal inhibitory concentration (IC50) in test [2] is 33.9 µM.
